Assay results reported in patent US20240368351A1, “FACTORS CONTROLLING DRUG RELEASE IN CROSS-LINKED POLY(VALEROLACTONE) BASED MATRICES” (Pendant Biosciences, Inc., priority 2019, published 2024).
In brackets after ≈: the same amount, converted by molar mass.

Tests used:
[1] = test system: L929 mouse fibroblast cells
Method: Cytotoxicity evaluation: CPs were incubated in culture media at a surface area to volume ratio of 1.25 cm^2/mL for 48 h. […] The L929 fibroblast cells were cultured and routinely maintained in Dulbecco's modified Eagle's medium (DMEM) supplemented with 10% fetal bovine serum (FBS) and 1% penicillin-streptomycin. The cells were grown in a monolayer in tissue culture flasks incubated at 37° C. and 5% CO2 at 90% relative humidity. Cells were counted and seeded in 96-well plates at a density of 2000 cells/well, which was determined to be the optimum cell density. After 24 h incubation, growth media was aspirated and replaced with either 150 μL CPs extracts at a surface area to volume ratio of 1.25 cm^2/mL or the same volume of extraction media that had been serially diluted to the above concentrations. Following 24, 48, and 72 h incubation periods, cell viability was evaluated using the MTS assay. Specifically, the extraction media was aspirated and replaced with 200 μL of fresh media followed by 20 μL of MTS reagent, and the cells were incubated at 37° C. for 1.5 h. Cell viability was measured by optical absorbance at 2=490 nm using a Cytation™ 5 Cell Imaging Multi-Mode Reader (BioTek, Vermont). […]
The cytotoxicities of the cross-linked matrices were evaluated in L929 mouse fibroblast cells using the extraction dilution method (FIG. 16).

[2] = Drug solubility in different release media (PBS with Tween 80 or SDS); assay type: physicochemical; settings: release media (PBS with Tween 80 or SDS), 37 °C, pH 7.4, aqueous with cosolvent or surfactant or cyclodextrin, thermodynamic from solid
Procedure: Mikkelsen, L. M., Enzyme solubility in liquid detergent and use of detergent composition. […] Crotts, G.; Park, T. G. Protein delivery from poly(lactic-co-glycolic acid) biodegradable microspheres: Release kinetics and stability issues. […] FDA.
The solutions were centrifuged at 8000 rpm for 10 minutes, and a 1 ml aliquot was withdrawn, filtered through a 0.45 μm nylon membrane, and analyzed by HPLC.

[3] = pure PBS pH 7.4; cited from earlier work
[4] = logP (octanol-water partition) by shake tube method; assay type: physicochemical; settings: read-out: Calculated LogP
blood plasma protein = settings: cited from earlier work
[5] = Solubility of Drug X in organic solvents and water; assay type: physicochemical
[6] = Extraction and recovery of Drug X from discs and microparticles (stability in polymer matrix); assay type: physicochemical
Procedure: In Table 53, a study was conducted in which a Drug X-loaded disc was placed in 10 mL of dichloromethane (DCM) for 8 hr at room temperature to extract Drug X, and DCM was removed using a rotary evaporator at 25° C. This extraction process was repeated two times. The extracted drug dissolved in a acetonitrile (ACN) was filtered using 0.45 μm a nylon membrane and measured by HPLC for extraction efficiency.
(§1) Method: Drug X-loaded microparticle in release media will be taken after 1 hrs and utilized to extract residue Drug X from microparticle.
We took out a disc after 2 weeks of release and freeze fried it. Then, the residual Drug X remaining in discs was extracted using dichloromethane to confirm Drug X stability in the disc.

[7] = In vitro drug release from microparticles; assay type: physicochemical
Description: There is no significant difference with Mesh, NaCl, and EtOH for release rate. Drug X loaded MPs show insufficient washing (high t=0) and burst release in a day.
Method: We will use a dialysis bag to properly change release media without loss of microparticle. This will prevent accumulation of Drug X degradation over time and allow more accurate release analysis. We will examine release with Drug X-loaded microparticle in different media (i.e. only PBS at pH 7.5).
as §1

[8] = cited from earlier work

For high density polyethylene [HDPE], the “decrease in cell viability relative to the untreated control” value [1] was “approximately 66%”.
In the case of CC1(C)O[C@@H]2C[C@H]3[C@@H]4CCC5=CC(=O)C=C[C@]5(C)[C@@]4(F)[C@@H](O)C[C@]3(C)[C@]2(C(=O)CO)O1 [Triamcinolone acetonide, triamcinolone acetonide], the solubility at 48 h [2] is given as 287 ± 56.9 µg/mL (≈ 661 µM), the TAA solubility [3] is given as 2.1 µg/mL and the logP [4] is given as 2.3.
In the case of CC(C)OC(=O)[C@H](C)N[P@](=O)(CO[C@H](C)Cn1cnc2c(N)ncnc21)Oc1ccccc1 [Drug X], the “bound to blood plasma protein” value (blood plasma protein) is listed as 80%, the “Solubility in EtOH/DMSO (50/50)” value ([5]; 5 mg per 100 mL or μL) is listed as “Soluble, and” and the “Solubility in DMSO/Water (50/50)” value ([5]; 5 mg per 200 mL or μL) is listed as “Insoluble”. For the same compound, the “Solubility in Water” value ([5]; 5 mg per 200 mL or μL) was “Insoluble”, the “degradation (second HPLC peak) in release and extraction samples” value ([6]; 1 hr time point, microparticles) was “no second peak detected” and the “Drug X recovered from the extraction” value ([6]; after two-day release) was ~35%. For the same compound, the “drug recovered from the discs (release & extraction)” value ([6]; disc after 2 weeks of release, dichloromethane extraction) was 88-93%, the “Drug X released” value ([6]; during the two-day release) was ~50% and the extraction efficiency ([6]; in the disc) was 85%. The “total recovered of the encapsulated Drug X” value ([6]; release plus extraction) was 83%-90%, the “time within which most of Drug X is released from MP” value [7] was ≤ 1 h and the “Drug X remained inside the MP after extraction” value ([7]; after 1 hr release) was “around 100 μg”. For the same compound, the “Log P” value [8] was 1.6, the Water solubility [8] was “(4.86 mg/mL)” and the “Water solubility (words)” value [8] was “Soluble in water”. The pKa [8] was 2.74.
